Experimental data: article PMC6151488, “Structure, Absolute Configuration, and Antiproliferative Activity of Abietane and Icetexane Diterpenoids from Salvia ballotiflora” (Molecules : A Journal of Synthetic Chemistry and Natural …, 2017)
“And” between values parts separate entries of the source, which are not always exact repeats. Identical values can stand only once. Like-named read-outs stand apart in the source and are kept apart here.

Assays:
[1] = system: U251 (human glioblastoma); assay: Sulforhodamine B (SRB) cytotoxicity assay, U251; format: cell-based; settings: for inhibition at 50 µM: primary screening at 50.0 μM, NC = No cytotoxic
Description: (§1) The natural products were screened in vitro against the following human cancer cell lines: human mammary adenocarcinoma (MCF-7), human chronic myelogenous leukemia (K562), human glioblastoma (U251), human lung adenocarcinoma (SKLU-1), human colon cancer (HCT-15), human prostate cancer (PC-3), healthy gingival human fibroblasts (FGH), and normal monkey kidney cell lines, which were supplied by the National Cancer Institute (NCI, USA) and American Type Culture Collection (ATTC). The human tumor cytotoxicity was determined using the protein-binding dye sulforhodamine B (SRB) in a microculture assay to measure cell growth, as described in the protocol established by the NCI [30]. The cell lines were cultured in RPMI-1640 medium supplemented with 10% fetal bovine serum, 2 mM L-glutamine, 10,000 units/mL penicillin G sodium, 10,000 μg/mL streptomycin sulfate, and 25 μg/mL amphotericin B (Gibco), and 1% non-essential amino acids (Gibco). They were maintained at 37 °C in a humidified atmosphere with 5% CO2.
(§2) Cytotoxicity after treatment of the tumors cells and normal cells with the test compounds were determined using the protein-binding dye sulforhodamine B (SRB) in a microculture assay to measure cell growth. The cells were removed from the tissue culture flasks by treatment with trypsin, and diluted with fresh media. Of these cell suspensions, 100 μL containing 5000–10,000 cells per well were pipetted into 96-well microtiter plates (Costar) and the material was incubated at 37 °C for 24 h in a 5% CO2 atmosphere. Subsequently, 100 μL of a solution of the compound obtained by diluting the stocks were added to each well. The cultures were exposed to the compound for 48 h. After the incubation period, cells were fixed to the plastic substratum by the addition of 50 μL of cold 50% aqueous trichloroacetic acid. The plates were incubated at 4 °C for 1 h, washed with tap water, and air-dried. The trichloroacetic-acid-fixed cells were stained by the addition of 0.4% SRB. The free SRB solution was then removed by washing with 1% aqueous acetic-acid. The plates were air-dried, and the bound dye was dissolved by the addition of 10 mM unbuffered Tris base (100 μL). The plates were placed on a shaker for 10 min, and the absorption was determined at 515 nm using an ELISA plate reader (Bio-Tex Instruments).

[2] = system: SKLU-1 (human lung adenocarcinoma); assay: Sulforhodamine B (SRB) cytotoxicity assay, SKLU-1; format: cell-based; settings: for inhibition at 50 µM: primary screening at 50.0 μM, NC = No cytotoxic; for IC50: SRB assay, 48 h exposure, mean ± SD, read-out: IC50 antiproliferative activity, SKLU-1
Description: as §1, with “CO2. The viability of the cells used in the experiments exceeded 95%, as determined with trypan blue.” for “CO2.”
as §2

[3] = system: K562 (human chronic myelogenous leukemia); assay: Sulforhodamine B (SRB) cytotoxicity assay, K562; format: cell-based; settings: for IC50: SRB assay, 48 h exposure, mean ± SD, read-out: IC50 antiproliferative activity, K562; for inhibition at 50 µM / Antiproliferative activity (%), K562: primary screening at 50.0 μM, NC = No cytotoxic
Description: as §1, with “CO2. The viability of the cells used in the experiments exceeded 95%, as determined with trypan blue.” for “CO2.”
as §2

[4] = system: MCF-7 (human mammary adenocarcinoma); assay: Sulforhodamine B (SRB) cytotoxicity assay, MCF-7; format: cell-based; settings: for IC50 / inhibition at 50 µM: Homo sapiens, MCF7; for IC50: SRB assay, 48 h exposure, mean ± SD, read-out: IC50 antiproliferative activity, MCF-7; for inhibition at 50 µM / Antiproliferative activity (%), MCF-7: mean n = 2, NC = No cytotoxic; for inhibition at 50 µM: read-out: Antiproliferative activity (%), MCF-7
Description: as §1, with “CO2. The viability of the cells used in the experiments exceeded 95%, as determined with trypan blue.” for “CO2.”
as §2

[5] = system: PC-3 (human prostate cancer); assay: Sulforhodamine B (SRB) cytotoxicity assay, PC-3; format: cell-based; settings: for inhibition at 50 µM: primary screening at 50.0 μM, mean n = 2, NC = No cytotoxic, read-out: Antiproliferative activity (%), PC-3
Description: as §1, with “CO2. The viability of the cells used in the experiments exceeded 95%, as determined with trypan blue.” for “CO2.”
as §2

[6] = system: HCT-15 (human colon cancer); assay: Sulforhodamine B (SRB) cytotoxicity assay, HCT-15; format: cell-based; settings: for inhibition at 50 µM: primary screening at 50.0 μM, mean n = 2, NC = No cytotoxic, read-out: Antiproliferative activity (%), HCT-15
Description: as §1, with “CO2. The viability of the cells used in the experiments exceeded 95%, as determined with trypan blue.” for “CO2.”
as §2

[7] = system: healthy gingival human fibroblasts (FGH); assay: Sulforhodamine B (SRB) cytotoxicity assay, FGH primary culture; format: cell-based; settings: primary screening at 50.0 μM; mean n = 2; NC = No cytotoxic
Description: as §1, with “[…] The viability of the cells used” for “They were maintained at 37 °C”, “the experiments exceeded 95%, as determined” for “a humidified atmosphere”, “trypan blue.” for “5% CO2.”
(§3) Cytotoxicity after treatment of the tumors cells and normal cells with the test compounds were determined using the protein-binding dye sulforhodamine B (SRB) in a microculture assay to measure cell growth. […] The plates were placed on a shaker for 10 min, and the absorption was determined at 515 nm using an ELISA plate reader (Bio-Tex Instruments).

TPA-induced ear edema = TPA-induced ear edema test in mice; format: in vivo; settings: mice CD-1, 1.0 μmol ear^-1 topical, 4 h after TPA, mean ± SEM; for Inhibition of Edema (%): NA = Non-active
Method: Male CD-1 mice weighing 25–30 g were maintained under standard laboratory conditions in the animal house (temperature 24 ± 2 °C) in a 12/12 h light/dark cycle, fed a laboratory diet and water ad libitum, following the Mexican official norm NOM-062-Z00-1999.
The TPA-induced ear edema assay in mice was performed as reported in reference. A solution of TPA (2.5 μg) in ethanol (10 μL) was applied topically to both faces (5 μL each ear) of the right ear of the mice, 10 min after solutions of the test substances in their respective solvents were applied (10 μL each face). The left ear received ethanol (10 μL) first, followed by 20 μL of the respective solvent. The mice were killed with CO2 four hours later. A 7-mm diameter plug was removed from each ear. The swelling was assessed as the difference in weight between the left and the right ear. Control animals received the correspondent solvent in each case. Edema inhibition (EI %) was calculated by the equation EI % = 100 − (B × 100/A), where A is the edema induced by TPA alone and B is the edema induced by TPA plus the sample. Indomethacin and celecoxib were used as reference compounds.

[8] = Scavenging activity on free radical DPPH; settings: at 100 μM; 30 min, 37 °C
Method: Free radical scavenging activity was measured using an adapted method of Mellors and Tappel. The test was carried out in 96-well microplates. A 50-μL aliquot of the solution of the test compound was mixed with 150 μL of an ethanol solution of DPPH (final concentration 100 μM). The mixture was incubated at 37 °C for 30 min, and the absorbance was then measured at 515 nm using a BioTek microplate reader SYNERGY HT. The percent inhibition was determined by comparison with a 100-μM DPPH ethanol blank solution.

[9] = system: six human cancer cell lines (U251, PC-3, K562, HCT-15, MCF-7, SKLU-1) and FGH; assay: SRB primary screening, whole panel (result in words); format: cell-based; settings: primary screening at 50 μM; cancer cell lines other than K562 and MCF-7
Method: The same biological activity was also recently described for icetexane-derivatives isolated from Premna and Amentotaxus species. […] These facts prompted us to assay diterpenoids 3, 4, 6–8 and 10 for antiproliferative activity using six human cancer cell lines (U251, PC-3, K562, HCT-15, MCF-7, and SKLU-1), and a primary culture of healthy gingival human fibroblasts (FGH) at 1.0 or 50.0 μM (when cytotoxicity at 50.0 μM results were too high). […] Overall, the antiproliferative activity determined for 7 was lower than that observed for 6.
as §1, with “CO2. The viability of the cells used in the experiments exceeded 95%, as determined with trypan blue.” for “CO2.”
as §3

HeLa cells = system: HeLa cells; parameters: method as in doi:10.1016/j.bjp.2017.01.007; settings: similar activity when compared to cisplatin; cited from earlier work
[10] = system: COS-7 normal monkey kidney; assay: Sulforhodamine B (SRB) cytotoxicity assay, COS-7 normal cell line; format: cell-based; settings: Primates, mean ± SD
Description: as §1, with “CO2. The viability of the cells used in the experiments exceeded 95%, as determined with trypan blue.” for “CO2.”
as §2, with “The plates were incubated at 4 °C for 1 h, washed with tap water, and air-dried. The trichloroacetic-acid-fixed cells were stained by the addition of 0.4% SRB. The free SRB solution was then removed by washing with 1% aqueous acetic-acid. The plates were air-dried, and the bound dye was dissolved by the addition of 10 mM unbuffered Tris base (100 μL).” left out

[11] = Homo sapiens, U-251, mean n = 2, read-out: Antiproliferative activity (%), U251
[12] = Homo sapiens, SK-LU-1, mean n = 2, read-out: Antiproliferative activity (%), SKLU-1
[13] = Homo sapiens, K562, mean n = 2, read-out: Antiproliferative activity (%), K562
[14] = primary screening at 1.0 μM, mean n = 2

Compound | inhibition at 50 µM [1, 11] | inhibition at 50 µM [2, 12] | IC50 ([3]; Homo sapiens, K562) | inhibition at 50 µM [3, 13] | Antiproliferative activity (%), K562 ([3]; mean n = 2) | IC50 [4] | inhibition at 50 µM ([4]; primary screening at 50.0 μM) | Antiproliferative activity (%), MCF-7 ([4]; primary screening at 50.0 μM) | inhibition at 50 µM [5] | inhibition at 50 µM [6] | Antiproliferative activity (%), FGH [7] | Edema (TPA-induced ear edema) | Inhibition of Edema (%) (TPA-induced ear edema) | DPPH inhibitory effect (%) [8] | melting point | other results
CC(C)C1=C(O)C(=O)C2=C(CC3OC(=O)C4(C)CCC=C(C2)C34)C1=O (stereo not shown) [Compound 7, 7,20-Dihydroanastomosine] | 10.1% | 46.5% | 31.2 ± 1.1 µM | 63.2% | moderate toxicity | 33.2 ± 1.2 µM | 62.6% | moderate toxicity | 17.8% | 26.8% | non-toxic | 15.50 ± 0.76 mg | non-active | 6.6% | 223 to 227 °C | 
CC(C)C1=C(O)C(=O)C2=C(C=C[C@@H]3[C@]4(CCC[C@]3(C)C(=O)O4)C2)C1=O [Compound 8, icetexone] | 35.8% | 52.9% | 17 ± 1.4 µM | 83.1% | significant antiproliferative activity | 28.7 ± 1.6 µM | 71.6% | significant antiproliferative activity | 39.6% | 29% | lacked of toxicity |  |  | 3.7% |  | Activity against all other tested cancer cell lines (in words) [9]: moderately active
19-deoxyisoicetexone |  |  |  |  |  |  |  |  |  |  |  |  |  |  |  | IC50 (HeLa cells): 9.36 µM
CC(=O)OC1CC2C3(CCCC2(C)C(=O)O3)CC2=C1C(=O)C(C(C)C)=C(O)C2=O (stereo not drawn) [Compound 3, 7α-Acetoxy-6,7-dihydroicetexone] |  |  |  |  |  |  |  |  |  |  |  | 9.87 ± 0.44 mg | 37.4 ± 2.8% and 37.42 ± 2.77 % | 6.1% | 110 to 115 °C | inhibition at 1 µM ([1]; Homo sapiens, U-251, primary screening at 1.0 μM, mean n = 2, read-out: Antiproliferative activity (%), U251): 65.4%; Antiproliferative activity (%), U251 [1, 14]: moderately active; SI (selectivity index), U251 ([1]; quotient of IC50 of COS-7 / IC50 of U251): 1.2; IC50 ([2]; Homo sapiens, SK-LU-1, 48 h): 0.46 ± 0.05 µM; inhibition at 1 µM ([2]; Homo sapiens, SK-LU-1, primary screening at 1.0 μM, mean n = 2, read-out: Antiproliferative activity (%), SKLU-1): 64.5%; IC50 [2]: 0.82 ± 0.06 µM; Antiproliferative activity (%), SKLU-1 [2, 14]: moderately active; SI (selectivity index), SKLU-1 ([2]; quotient of IC50 of COS-7 / IC50 of SKLU-1): 2.0; IC50 [10]: 1.62 ± 0.1 µM; inhibition at 1 µM ([3]; Homo sapiens, K562, primary screening at 1.0 μM, mean n = 2, read-out: Antiproliferative activity (%), K562): 48.6%; Antiproliferative activity (%), MCF-7 ([4]; primary screening at 1.0 μM): non-toxic; inhibition at 1 µM ([5]; primary screening at 1.0 μM, mean n = 2, read-out: Antiproliferative activity (%), PC-3): 34.2%; inhibition at 1 µM ([6]; primary screening at 1.0 μM, mean n = 2, read-out: Antiproliferative activity (%), HCT-15): 33.4%
